The source of these data is article PMC11596972, “Synthesis and Antimicrobial Activity of 3-Alkylidene-2-Indolone Derivatives” (Molecules, 2024).

Data set [1] concerns MRSA ATCC 43300. Kind of data set: MIC, double dilution method, MRSA ATCC 43300. The data set is classed as cell-based, Methicillin-resistant Staphylococcus aureus. To be noted: Staphylococcus aureus, 24 h, MRSA ATCC 43300, Gram-positive; 24 h culture.
For data set [2], the system named is E. coli ATCC 25922. Kind of data set: MIC, double dilution method, E. coli ATCC 25922. The conditions noted are these: Escherichia coli, ATCC25922, 24 h. The data set is classed as cell-based.
Data set [3] in a line: Cytotoxicity, MTT assay, L-02. The data set is classed as cell-based. To be noted: human, L-02 cells (normal liver cell line), 48 h incubation. The method, then: (§1) The cytotoxicity of the most bioactive compounds 10f, 10g and 10h were evaluated in vitro against the HepG2 cell line (human hepatocellular carcinoma cell line) and the L-02 cell line (normal liver cell line) by 3-(4,5-dimethylthiazol-2-yl)-2,5-diphenyltetrazolium bromide (MTT) assay. The obtained results were presented by the inhibitory concentration that reduces the viability of the cell population to 50% of the maximal viability (IC50).
(§2) HepG2 cells and L-02 cells (ATCC, Manassas, VA, USA) were plated in 96-well plates at a density of 30–40% to ensure exponential growth throughout the experimental period, and then allowed to adhere for 1 day. Next, the cells were treated with eight concentrations (100, 50, 25, 10, 5, 1, 0.1, and 0.01 μmol/L) of each compound. After 48 h of incubation, MTT solution was added to each well at a final concentration of 2 mg/mL and incubated for an additional 4 h. Next, the MTT solution was removed and […] of dimethyl sulphoxide (DMSO)/well was added (Sigma-Aldrich, St. Louis, MO, USA). The plates were shaken vigorously at RT to ensure complete solubilization, and absorption at 492 nm was determined by a microplate reader (BioTek Instruments, Inc., Winooski, VT, USA). At least three independent experiments were conducted.
(In general: Tetrazolium dyes change colour on reduction, which living cells bring about.)

Data set [4] relates to C. albicans CMCC 98001. The experiment in a line: MIC, double dilution method, C. albicans CMCC 98001. The data set is classed as cell-based, Candida albicans. The conditions noted are these: Candida albicans, CMCC98001, 24 h, C. albicans CMCC 98001, fungus; 24 h culture.
Data set [5] deals with E. coli 1924. Kind of data set: MIC, double dilution method, E. coli 1924. The data set is classed as cell-based, Escherichia coli. To be noted: Escherichia coli, 1924, 24 h.
In data set [6] the test system is Staphylococcus aureus ATCC 6538. Kind of data set: Minimum bactericidal concentration, S. aureus ATCC 6538. The data set is classed as cell-based. To be noted: ATCC6538, 99.9% reduction of inoculum. How it is done:
(§3) Moreover, minimum bactericidal concentration (MBC (μg/mL)) or minimum fungicidal concentration (MFC (μg/mL)) assays were performed for the promising compounds 10d, 10f, 10g and 10h against Staphylococcus aureus ATCC 6538, Staphylococcus aureus 4220, Staphylococcus aureus ATCC 43300 and Candida albicans CMCC 98001, and shown in Table 2.
(§4) The minimum bactericidal concentration (MBC) or minimum fungicidal concentration (MFC) was determined as described, following the MIC assay, by subculturing 5 μL of the compounds from wells showing no visible growth onto fresh agar plates. The plates were incubated at 37 °C for 24 h.

The subject of data set [7] is S. aureus ATCC 6538. Kind of data set: MIC, double dilution method, S. aureus ATCC 6538. The data set is classed as cell-based. The conditions noted are these: Staphylococcus aureus, ATCC6538, 24 h.
Data set [8] has as its system S. aureus 4220. The experiment in a line: MIC, double dilution method, S. aureus 4220. The data set is classed as cell-based. The conditions noted are these: Staphylococcus aureus, 4220, 24 h.
A short description of data set [9]: Cytotoxicity, MTT assay, HepG2. The data set is classed as cell-based. The conditions noted are these: human, HepG2 cells, 48 h incubation. How it is done: as §1, §2
The test system of data set [10] is P. aeruginosa CMCC 10211. The experiment in a line: MIC, double dilution method, P. aeruginosa CMCC 10211. The data set is classed as cell-based. To be noted: Pseudomonas aeruginosa, CMCC10211, 24 h.
Data set [11] concerns Staphylococcus aureus 4220. The experiment in a line: Minimum bactericidal concentration, S. aureus 4220. The conditions noted are these: 99.9% reduction of inoculum. The data set is classed as cell-based. How it is done: as §3, §4
Data set [12] has as its system Staphylococcus aureus ATCC 43300. Kind of data set: Minimum bactericidal concentration, S. aureus ATCC 43300. The data set is classed as cell-based. To be noted: ATCC43300. The method, then: as §3, §4

Each structure is given as a SMILES string. In brackets after ≈: the same amount, converted by molar mass. Some results are limits rather than exact numbers.

For orientation: MIC means the lowest concentration found to suppress growth. Lower therefore signals greater potency. Usually IC50 stands for the concentration that inhibits the measured activity by half. Lower therefore signals higher potency. A word on the MBC: it is the smallest concentration meeting the test's criterion for killing. High values mean weaker bactericidal potency, low ones greater bactericidal potency.

Take `Cc1cccc2c1N(C)C(=O)/C2=C(\O)c1ccc(Cl)cc1` [Compound 10f, (Z)-3-((4-chlorophenyl)(hydroxy)methylene)-1,7-dimethylindolin-2-one]: the MIC in data set [1] is 2 mg/L (≈ 6.67 µM); in [2] it was above 64 mg/L; in [4], above 64 mg/L; in data set [5] it was 8 mg/L (≈ 26.7 µM); in [7], 0.5 mg/L (≈ 1.67 µM); in data set [8] it was 4 mg/L (≈ 13.3 µM). Further, the MIC in data set [10] was above 64 mg/L. The IC50 at 48 h in [3] and in data set [9] was above 100 µM throughout. In data set [6], this compound registered an MBC of 32 mg/L (≈ 107 µM).

Regarding `CN1C(=O)/C(=C(\O)c2ccc(Cl)cc2)c2cccc(Br)c21` [Compound 10g, (Z)-7-bromo-3-((4-chlorophenyl)(hydroxy)methylene)-1-methylindolin-2-one], the MIC in [1] is 0.5 mg/L (≈ 1.37 µM); in [2], 64 mg/L (≈ 176 µM); in data set [4] it was above 64 mg/L; in data set [5], 1 mg/L (≈ 2.74 µM); in data set [7], 2 mg/L (≈ 5.49 µM); in data set [8], 0.5 mg/L (≈ 1.37 µM). Moreover, the MIC in data set [10] is above 64 mg/L. For the same compound, the IC50 at 48 h in data set [3] and in data set [9] was above 100 µM in each case. In [11], this compound registered an MBC of 32 mg/L (≈ 87.8 µM).

On to `CCCN1C(=O)/C(=C(\O)c2ccc(Cl)cc2)c2ccccc21` [Compound 10h, (Z)-3-((4-chlorophenyl)(hydroxy)methylene)-1-propylindolin-2-one], for which the minimum inhibitory concentration (MIC) in data set [1] came out at 0.5 mg/L (≈ 1.59 µM); in data set [2] it was 16 mg/L (≈ 51 µM); in [4], 64 mg/L (≈ 204 µM); in [5], 1 mg/L (≈ 3.19 µM); in data set [7], 0.5 mg/L (≈ 1.59 µM); in data set [8], 1 mg/L (≈ 3.19 µM). The compound also had an MIC in data set [10] of 16 mg/L (≈ 51 µM). The values for the IC50 at 48 h in [3] and in data set [9] were 53.5 µM and 41.6 µM, respectively. This compound had a minimum bactericidal concentration (MBC) in data set [12] of 32 mg/L (≈ 102 µM).
